From patent publication US8802164B2 (Oryza Oil & Fat Chemical Co., Ltd., priority 2003, dated 2014)
Values after ≈ are worked out from the molar mass of the structure shown.

Key:
α-glucosidase = test: α-Glucosidase inhibitory activity; format: biochemical, rat; conditions: for IC50: rat small intestine acetone powder enzyme, 4-methylumbelliferyl-α-D-glucopyranoside 0.05 mM, 37° C., 30 minutes; for inhibitory activity of α-glucosidase (in words): rat small intestine enzyme, Chart 2
Procedure: The test method is herein described. First of all, mix the acetone powder of the rat small intestine with the pH7.0. 0.1M phosphate buffer solution (product of […] JAPAN K.K), which is approx. 10 times as much as the volume of the acetone powder, and obtain the enzyme liquid from the centrifuged supernatant. Use the 0.2 mM 4-methyl umbel […]-gluco-pyranoside ([…] JAPAN K.K) as a substrate. After dissolving each sample in the DMSO, prepare the two-fold dilution series with the 4% DMSO containing phosphate buffer solution. The diluted solution (50 μL/well) and buffered substrate (25 μL/well) are mixed in a microplate, and after preheating it at 37° C. for 10 minutes, add the enzyme liquid (25 μL/well) to induce the reaction at 37° C. for 30 minutes (final concentration of enzyme: 1 mg protein mL, final concentration of substrate: 0.05 mM). Then, add the 0.2M Na2CO3 (100 μL/well) to stop the reaction. Measure the fluorescence intensity (excitation wavelength: 366 nm, determined wavelength: […]) using a microplate reader.

[1] = Four-day weight gain test with existing dietetic materials (Chart 1); format: in vivo; conditions: mice, sample mixed in food
Procedure: Salacia extract can be obtained by extracting the salacia root with solvent. Evening primrose extract can also be obtained by extracting the evening primrose with solvent. As a test method, as shown in Chart 1, a four-day experiment was conducted with the mice (ddY, male, 5-week-old) to freely eat the food (CE-2, CLEA Japan, Inc.) mixed with the sample as indicated in Chart 1. The weight of each mouse was measured on the first day and on the final day of the experimental period.

[2] = Suppressive effect on fatty liver (hepatic triglyceride and total cholesterol); format: in vivo; conditions: mice, oral once a day for two weeks; FIG. 7
Text: The test method is herein described. Keep the mice (ddY, male, 5-week-old) in the laboratory for one week. Then, divide them into four groups and orally administer the samples suspended in the gum […] %) once a day for two weeks. On the final day of the test, remove the livers from the non-food-derived mice, and measure the amount of liver triglyceride and total cholesterol contained therein by using the test kit of Wako Pure Chemical Industries Ltd. of Japan.

[3] = Hypotriglyceridemic action in blood of food-deprived mice; format: in vivo; conditions: 24-hour food-deprived mice, single oral dose, blood every hour; FIG. 9
Procedure: Then the effects on the blood triglyceride level are observed. The test method is herein described. First of all, take a blood sample from the veins of the 24-hour food-deprived mice (ddy. Male, 6-week-old). Half an hour later, orally apply each sample (10 mL./kg) suspended with the gum […] of 5 w/v % to the mice. Then, take a blood sample from the mice every one hour, and measure the blood triglyceride levels. Under the same condition, measure the blood triglyceride levels of the mice as a control, in which only gum […] orally administered.

epididymal fat = test: Lipolysis effect, glycerol release of epididymal fat (in vitro); format: cell-based, rats; conditions: rat epididymal fat, 37° C., three hours; extract at 1000 μg/mL; FIG. 8
Procedure: The test method is herein described. Remove the epididymal fat from male Wister rats, and incubate the fat in each sample solved in Medium 199 (medium culture) at a temperature of 37° C. for three hours. After completing the incubation, remove the fat and measure the amount of glycerol in the medium by using F-kit glycerol (product of Nippon Roche).

[4] = Diet effect on weight gain and body fat accumulation, mice fed sample-mixed food for 13 days; format: in vivo; conditions: mice ddY, sample mixed in food; for effect on accumulation of epididymal fat and perinephric fat weight: 13 days, FIG. 2; for effect on the weight gain: free feeding 13 days, extract 0.5/1.0 wt %, caffeine 0.05/0.1 wt %, chlorogenic acid 0.15/0.3 wt %, FIG. 1
Procedure: The weight of each mouse was measured every other day during the feeding period, and the weight of the epididymal fat of each mouse on the last day of the feeding period. There was little difference in intake of the food among the control group (for only normal food given) and individual sample administration groups.

pancreatic lipase = biological target: T1, pancreatic lipase (Sus scrofa, UniProt P00591); test: Pancreatic lipase inhibitory activity (in vitro); format: biochemical; conditions: swine pancreatic lipase 105.8 units/mL; FIG. 5
T1 construct: purchased SIGMA ADLRICH JAPAN K.K
T1 sequence (P00591 1-450): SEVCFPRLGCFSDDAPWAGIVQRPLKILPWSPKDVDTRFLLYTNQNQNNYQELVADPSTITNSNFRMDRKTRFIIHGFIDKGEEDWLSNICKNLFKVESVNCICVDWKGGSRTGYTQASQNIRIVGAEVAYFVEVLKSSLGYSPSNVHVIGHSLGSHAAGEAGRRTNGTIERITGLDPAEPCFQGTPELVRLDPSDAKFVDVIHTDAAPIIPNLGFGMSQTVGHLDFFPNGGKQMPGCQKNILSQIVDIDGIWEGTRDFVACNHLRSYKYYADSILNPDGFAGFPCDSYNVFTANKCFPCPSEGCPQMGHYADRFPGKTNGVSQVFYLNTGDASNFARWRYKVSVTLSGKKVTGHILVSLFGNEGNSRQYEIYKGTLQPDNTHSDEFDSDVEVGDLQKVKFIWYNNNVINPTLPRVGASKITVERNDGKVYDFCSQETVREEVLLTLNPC
Procedure: The lipase inhibitory activity was analyzed by using a pancreatic lipase (product of […] JAPAN K.K, final concentration 105.8 units/mL) derived from the swine and a lipase kit-s (Dainippon Pharmaceutical Co., Ltd.).

[5] = system: mouse adipose cell line (3T30L1); test: Effect on fat accumulation and differentiation of 3T3-L1 adipocytes; format: cell-based; conditions: 3T3-L1 after differentiation induction, 6 days with sample; FIG. 6
Procedure: The test method is herein described. Cultivate the 3T30L1 adipose cell (5×10^4 cells/mL) in DMEM medium (high glucose) including fetal calf serum (10 wt %) for two days. Then, replace the medium with a different type of medium containing insulin ([…]), dexamethasone (0.25 μM) and isobutyl methyl xanthin (0.5 mM) for the differentiation induction. Two days later, replace the medium again with the different medium containing the samples and insulin (1 μg/mL), and cultivate them for six days replacing the medium every other day. After completing the cultivation, analyze the glycerol 3-phosphate dehydrogenase (GPDH) activity which is to be an indicator of the concentration of triglyceride in the cell and adipocyte differentiation.

| Structure (SMILES) | IC50 (α-glucosidase) | inhibitory activity of α-glucosidase (in words) (α-glucosidase) | Weight (g) 4th day ([1]; 4th day, average ± standard error, n = 5) | Difference in the weight compared to the control ([1]; four days) | Weight increase ([1]; four days) | effect on liver triglyceride [2] | liver total cholesterol value [2] | lowering effect on the blood-triglyceride [3] | lipolysis effect (glycerol release) (epididymal fat) | effect on accumulation of epididymal fat and perinephric fat weight [4] | effect on the weight gain [4] | pancreatic lipase inhibitory activity (pancreatic lipase) | effect on the GPDH activity [5] | effect on the fat accumulation (triglyceride accumulation) [5] |
| --- | --- | --- | --- | --- | --- | --- | --- | --- | --- | --- | --- | --- | --- | --- |
| O=C(O)/C=C/c1ccc(O)c(O)c1 [Coffeic acid] | 100 µg/mL (≈ 0.555 mM) | strong inhibitory activity of α-glucosidase | – | – | – | – | – | – | – | – | – | – | – | – |
| c1cc2c(cc1[C@H]1OC[C@H]3[C@@H]1CO[C@@H]3c1ccc3c(c1)OCO3)OCO2 [Sesamine, sesamine] | – | – | 30.91 ± 1.79 g | -0.83 g | 3.55 g | – | – | – | – | – | – | – | – | – |
| O=C(/C=C/c1ccc(O)c(O)c1)O[C@@H]1C[C@](O)(C(=O)O)C[C@@H](O)[C@H]1O [Chlorogenic acid, chlorogenic acid] | – | strong inhibitory activity of α-glucosidase | – | – | – | strong effect | almost the same as the value of the control group | lowering effect on the blood-triglyceride identical to the effect of synephrine | mild lipolysis effect | slightly indicates a suppressive effect on the accumulation of the fat | do not have a sufficient suppressive effect on the weight gain | indicate a pancreatic lipase inhibitory activity | mild inhibitory effect on the GPDH activity | mild inhibitory effect on the fat accumulation |
| Cn1c(=O)c2c(ncn2C)n(C)c1=O [Caffeine, caffeine] | >1000 µg/mL | does not indicate the inhibitory activity | – | – | – | strong effect | almost the same as the value of the control group | strong lowering effect on the blood-triglyceride | – | slightly indicates a suppressive effect on the accumulation of the fat | do not have a sufficient suppressive effect on the weight gain | indicate a pancreatic lipase inhibitory activity | mild inhibitory effect on the GPDH activity | mild inhibitory effect on the fat accumulation |
| O=C(O)[C@]1(O)C[C@@H](O)[C@@H](O)[C@H](O)C1 [Quinic acid, quinic acid] | >1000 µg/mL | does not indicate the inhibitory activity | – | – | – | – | – | – | – | – | – | – | – | – |
